From patent US8377949B2, “Quinazolinedione chymase inhibitors” (Boehringer Ingelheim International GmbH, priority 2007, dated 2013)

Target: T1, Chymase (Homo sapiens, UniProt P23946)
T1 sequence (P23946 22-247): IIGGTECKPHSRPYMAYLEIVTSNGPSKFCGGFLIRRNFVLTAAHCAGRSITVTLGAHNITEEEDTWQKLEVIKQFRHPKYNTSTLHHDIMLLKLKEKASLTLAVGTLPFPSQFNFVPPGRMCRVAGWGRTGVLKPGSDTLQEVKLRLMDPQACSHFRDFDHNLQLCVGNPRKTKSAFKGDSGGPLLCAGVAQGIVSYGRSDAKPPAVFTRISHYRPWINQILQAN
Experiment: In vitro Assay for Inhibition of Chymase
Format: biochemical
Conditions: 500 pM chymase, 100 nM rhodamine 110 peptide substrate, 1 hour at 28° C., fluorescence
Protocol: In vitro Assay for Inhibition of Chymase
Chymase assays were performed in a total volume of 15 μL in Corning black opaque 384-well microtiter plates with a non-binding surface (Coming, N.Y.). The assay buffer was comprised of 20 mM Tris HCl pH 8.0, 50 mM NaCl, 0.01% CHAPS. The test compounds were serially diluted 3-fold with neat DMSO in a 96-well polypropylene plate from a 10 mM DMSO stock to give the 10 point dose response curve. 3 μL of the resulting DMSO solution were transferred to a 384-well polypropylene plate in duplicate, and 37 μL of assay buffer was added. Chymase was added to the assay plate in 3 uL of assay buffer followed by 2 uL of the appropriate compound dilution using a PlateMate Plus (Matrix Technologies Corp., Hudson, N.H.). The reaction was initiated by the addition of 10 uL rhodamine 110, bis-(succinoyl-L-alanyl-L-alanyl-L-prolyl-L-phenylalanylamide) (American Peptides, Sunnyvale, Calif.) in assay buffer containing 150 μM tris(2-carboxyethyl)phosphine (TCEP, Pierce Chemical, Rockford, Ill.) using a Multidrop (Thermo Electron Corp., Waltham, Mass.). Final assay concentrations were 500 pM chymase, 100 nM substrate, 100 μM TCEP, and 1% DMSO. The plates were incubated at 28° C. and 80% humidity for 1 hour, at which time the fluorescence was read on a Viewlux 1430 Microplate Imager (Perkin Elmer Life Sciences, Boston, Mass.) with 485 nm excitation, 530 nm emission, and a fluorescein dichroic mirror. The percentage of control values were calculated relative to assay blanks containing complete reaction minus chymase and a 100% control containing assay buffer with 1% DMSO in place of compound. IC50 values were obtained by fitting the data using XLFit4 (IDBS Software).

IC50: 2.5 nM
SMILES: Cc1cccc2c1c(Cn1c(=O)n([C@@H](C)C(=O)O)c(=O)c3ccccc31)cn2C [(S)-2-[1-(1,4-Dimethyl-1H-indol-3-ylmethyl)-2,4-dioxo-1,4-dihydro-2H-quinazolin-3-yl]-propionic acid]
